According to US20210022305A1, “A HUMULUS PLANT VARIANT AND EXTRACTS THEREOF” (BOMI LLC, priority 2018, published 2021):

System: liver cancer tumors (Standard Risk Hepatoblastoma)
Assay: Liver cancer study: cisplatin alone vs cisplatin + ImmunAG, tumor size
Format: in vivo, human
Description: Patient Characteristics. There were 99 men and 18 women in the trial. The average age was 53, with a minimum age of 31 and a maximum age of 78. Eighty-six patients (73.5%) were preoperative TACE negative, and 31 patients (26.49%) were preoperative TACE positive. Seventeen patient (14.52%) were HBsAg negative and 100 patients (85.47%) were HBsAg positive. One hundred six patients […] were Anti-HCV negative and 11 patients […] were Anti-HCV positive. Eighteen patients […] were negative for cirrhosis and 99 patients (83.9%) were positive for cirrhosis. Preoperative alpha-fetoprotein (μg/L) was an average of 18.3 with a minimum value of 1.7 and a maximum value of 1089. Cumulative tumor size was an average of 4.89 cm with a minimum of 2.37 cm and a maximum value of 19.62 cm. Fifty-three people had 2 tumors in the liver, 52 people has 3 liver tumors and 12 people had 4 tumors. The average tumor number is […]. There were 7 cases (5.98%) of high Necrosis differentiation, 106 cases of medium (90.59%) Necrosis differentiation, and 4 cases (3.41%) of low Necrosis differentiation. […] The rest, 99 patient (84.6%) had liver capsule invasion in some form.
All these patients were suffering from Standard Risk (SR) Hepatoblastoma- and not Hepatocellular carcinoma or Cholangiocarcinoma. Of these patients, 57 of the men, and 7 of the women, had surgical resectioning of some degree. However at this point of treatment resectioning was not considered a viable option.
There were 54 men and 10 women in the Cisplatin alone treatment group. There were 45 men and 8 women in the Cisplatin+ImmunAG group. The Cisplatin alone treatment group received a dosage of 50-70 mg/m^2, every four weeks for a duration of the study. The Cisplatin+ImmunAG group received the same dosage of Cisplatin as noted above in combination with a 80 mg-600 mg/day dose of ImmunAG (composition comprising CBD, humulene, and β-caryophyllene). The exact dose of ImmunAG was determined based on patient's sex and height, and was administered in three doses over the course of the day.

SMILES: N.N.[Cl][Pt][Cl] [Cisplatin]
- Final tumor sizes, Mean (after treatment, cisplatin 50-70 mg/m^2 every four weeks, ImmunAG 80 mg-600 mg/day): 5.659
- Initial tumor sizes, Mean (before treatment, liver tumors of patients): 4.851
- Change of mean tumors (final vs initial): 17%
- Mean tumors relative to initial (from 1) (final vs initial = 1): 1.17
